In patent US20240173332A1, “BENZO[…] TREATING OR PREVENTING RESPIRATORY SYNCYTIAL VIRUS INFECTION” (Pfizer Inc., priority 2021, published 2024):
Counter-ions that a name gives are not always drawn. Like-named read-outs stand apart in the source and are kept apart here.

Experiments:
[1] = Liver microsomal stability, human; assay type: in vitro ADME; conditions: 1 μM compound, NADPH; for half-life at 1 μM: pooled liver microsomes, pH 7.4, 0.5 mg/mL protein, read-out: Liver Microsomal Stability t1/2
Protocol: (§1) Compounds were subjected to the following assays to investigate liver microsomal stability and hepatocyte stability.
(§2) Pooled liver microsomes were purchased from a reputable commercial supplier and stored at −80° C. prior to use. Microsomes (final protein concentration 0.5 mg/mL), 0.1 M phosphate buffer pH 7.4 and test compound (final substrate concentration 1 μM; final DMSO concentration 0.25%) were pre-incubated at 37° C. prior to the addition of NADPH (final concentration 1 mM) to initiate the reaction. The final incubation volume was 50 μL. A control incubation was included for each compound tested where 0.1 M phosphate buffer pH 7.4 was added instead of NADPH (minus NADPH). Two control compounds were included with each species. All incubations were performed singularly for each test compound. Each compound was incubated for 0, 5, 15, 30 and 45 min. The control (minus NADPH) was incubated for 45 min only. The reactions were stopped by transferring incubate into acetonitrile at the appropriate time points, in a 1:3 ratio. The termination plates are centrifuged at 3,000 rpm for 20 min at 4° C. to precipitate the protein. Following protein precipitation, the sample supernatants were combined in cassettes of up to 4 compounds, internal standard added, and samples analysed by LC-MS/MS. From a plot of In peak area ratio (compound peak area/internal standard peak area) against time, the gradient of the line was determined. Subsequently, half-life (t1/2) and intrinsic clearance (CLint) were calculated.

Hep-G2 cells = assay: Cell cytotoxicity CC50; assay type: cell-based; conditions: mean of at least two experiments unless (n = 1)
[2] = Liver microsomal stability, rat; assay type: in vitro ADME; conditions: 1 μM compound, NADPH; for half-life at 1 μM: pooled liver microsomes, pH 7.4, 0.5 mg/mL protein, read-out: Liver Microsomal Stability t1/2
Protocol: as §1, §2

RSV A2 = assay: RSV plaque reduction assay in Hep-G2 cells; assay type: cell-based, respiratory syncytial virus (RSV); conditions: Hep-G2 cells, RSV A2, 2 days, mean of at least two experiments, read-out: RSV A2 Plaque EC50
Protocol: Compounds were subjected to RSV plaque reduction assays according to the following protocol. Plaque EC50 and cell toxicity CC50 values are a mean of at least two experiments and figures are rounded to whole units.
Hep-G2 cells (ECACC, 85011430) were passaged in flasks and seeded in 24-well plates in DMEM containing antibiotics and supplemented with 10% FBS. During inoculation and subsequent incubation, cells were cultured in DMEM containing 2% FBS. 100 plaque forming unit/well of RSV (RSV A2 ECACC, 0709161v) was mixed with eight serial dilutions of compound. Subsequently, 100 μL of the virus/compound mixtures was added to confluent Hep-G2 cell monolayers. The cells and virus/compound mixtures were incubated at 37° C. in a humidified 5% CO2 incubator for 2 h prior to removal of the inoculum and addition of 1 mL of overlay (DMEM containing 2% FBS and 0.8% CMC) containing compound dilutions. The cells and were incubated at 37° C. in a humidified 5% CO2 incubator for 2 days.
Cells were washed with PBS before adding 75/25% v/v EtOH/MeOH, for 3 min. Fixative was removed and plates were washed with PBS. A pre-titrated amount of the primary antibody was added in 200 μL PBS/2% milk powder, and plates incubated for 90 min at 37° C. The plates were washed 3 times with PBS/0.05% Tween20 before addition of rabbit anti-goat horse radish peroxidase in 200 μL PBS/2% milk powder, and incubated for 1 h at 37° C. Following three wash steps with PBS/0.05% Tween20, 200 μL ready-to-use TrueBlue was added and plates were incubated at rt for 10-15 min before washing with water. After removal of water, plates were air-dried in the dark. Plates were scanned and analysed using the Immunospot S6 Macro analyser, which is equipped with BioSpot analysis software for counting immunostained plaques (virospots). Plaque counts were used to calculate % infection relative to the mean of the plaque count in the virus control wells for RSV. The EC50 value was calculated as 50% reduction in signal, respectively, by interpolation of inhibition curves fitted with a 4-parameter nonlinear regression with a variable slope in Dotmatics. Plaque EC50 and cell toxicity CC50 values are a mean of at least two experiments and figures are rounded to whole units.

[3] = Liver microsomal stability, dog; assay type: in vitro ADME; conditions: 1 μM compound, NADPH; for half-life at 1 μM: pooled liver microsomes, pH 7.4, 0.5 mg/mL protein, read-out: Liver Microsomal Stability t1/2
Protocol: as §1, §2

Cell cytotoxicity CC50 = assay type: cell-based; conditions: human, Hep-G2 cells; mean of at least two experiments unless (n = 1)
[4] = human respiratory syncytial virus, HepG2, 48 h

Compound: 2-[2-Fluoro-4-(hydroxymethyl)phenyl]-N-[(3S)-2-oxo-5-phenyl-1,3-dihydro-1,4-benzodiazepin-3-yl]pyrazolo[1,5-a]pyrimidine-3-carboxamide [Example 2]
- Liver Microsomal Stability t1/2 ([1]; human liver microsomes, 0.5 mg/mL protein): 1.95 h
- CC50 (Hep-G2 cells): > 25000 nM
- Liver Microsomal Stability t1/2 ([2]; rat liver microsomes, 0.5 mg/mL protein): 0.957 h
- EC50 (RSV A2): 40 nM
- Liver Microsomal Stability t1/2 ([3]; dog liver microsomes, 0.5 mg/mL protein): 0.887 h

Compound: CC(O)c1ccc(-c2nn3cccnc3c2C(=O)N[C@H]2N=C(c3ccccc3)c3ccccc3NC2=O)c(F)c1 (single isomer, unassigned) [Example 16-2, 2-[2-Fluoro-4-[(1R*)-1-hydroxyethyl]phenyl]-N-[(3S)-2-oxo-5-phenyl-1,3-dihydro-1,4-benzodiazepin-3-yl]pyrazolo[1,5-a]pyrimidine-3-carboxamide]
- CC50 (Hep-G2 cells): > 2500 nM
- EC50 (RSV A2): 11 nM

Compound: CC(O)c1ccc(-c2nn3cccnc3c2C(=O)N[C@H]2N=C(c3ccccc3)c3cccc(F)c3NC2=O)c(F)c1 (single isomer, unassigned) [Example 17-2, 2-[2-Fluoro-4-[(1R*)-1-hydroxyethyl]phenyl]-N-[(3S)-9-fluoro-2-oxo-5-phenyl-1,3-dihydro-1,4-benzodiazepin-3-yl]pyrazolo[1,5-a]pyrimidine-3-carboxamide]
- CC50 (Hep-G2 cells): > 2500 nM
- EC50 (RSV A2): 7.8 nM

Compound: O=C(N[C@H]1N=C(c2ccccc2)c2cccc(F)c2NC1=O)c1c(-c2cnn(CC(F)(F)F)c2)nn2cccnc12 [Example 3, N-[(3S)-9-fluoro-2-oxo-5-phenyl-1,3-dihydro-1,4-benzodiazepin-3-yl]-2-[1-(2,2,2-trifluoroethyl)pyrazol-4-yl]pyrazolo[1,5-a]pyrimidine-3-carboxamide]
- half-life at 1 μM [1]: > 2.33 h
- CC50 (Cell cytotoxicity CC50): > 25000 nM
- half-life at 1 μM [2]: 3.48 h
- EC50 (RSV A2; [4]): 66 nM
- half-life at 1 μM [3]: 1.78 h

Compound: O=C(N[C@H]1N=C(c2ccccc2)c2cccc(F)c2NC1=O)c1c(-c2cnn(C3CCOCC3)c2)nn2cccnc12 [Example 6, N-[(3S)-9-fluoro-2-oxo-5-phenyl-1,3-dihydro-1,4-benzodiazepin-3-yl]-2-[1-(oxan-4-yl)pyrazol-4-yl]pyrazolo[1,5-a]pyrimidine-3-carboxamide]
- half-life at 1 μM [1]: 4.32 h
- CC50 (Cell cytotoxicity CC50): > 25000 nM
- half-life at 1 μM [2]: 1.42 h
- EC50 (RSV A2; [4]): 49 nM
- half-life at 1 μM [3]: 2.07 h

Compound: CCn1cc(-c2nn3cccnc3c2C(=O)N[C@H]2N=C(c3ccccc3)c3cccc(F)c3NC2=O)cn1 [Example 13, 2-(1-Ethylpyrazol-4-yl)-N-[(3S)-9-fluoro-2-oxo-5-phenyl-1,3-dihydro-1,4-benzodiazepin-3-yl]pyrazolo[1,5-a]pyrimidine-3-carboxamide]
- half-life at 1 μM [1]: 8.93 h
- CC50 (Cell cytotoxicity CC50): > 25000 nM
- half-life at 1 μM [2]: 7.52 h
- EC50 (RSV A2; [4]): 58 nM
- half-life at 1 μM [3]: 6.82 h

Compound: CC(C)(O)c1ccc(-c2nn3cccnc3c2C(=O)N[C@H]2N=C(c3ccccc3)c3cccc(F)c3NC2=O)c(F)c1 [Example 19, 2-[2-Fluoro-4-(2-hydroxypropan-2-yl)phenyl]-N-[(3S)-9-fluoro-2-oxo-5-phenyl-1,3-dihydro-1,4-benzodiazepin-3-yl]pyrazolo[1,5-a]pyrimidine-3-carboxamide]
- half-life at 1 μM [1]: 2.82 h
- CC50 (Cell cytotoxicity CC50): > 25000 nM
- half-life at 1 μM [2]: 2.43 h
- EC50 (RSV A2; [4]): 8.5 nM
- half-life at 1 μM [3]: 1.22 h

Compound: CS(=O)(=O)c1ccc(F)c(-c2nn3cccnc3c2C(=O)N[C@H]2N=C(c3ccccc3)c3cccc(F)c3NC2=O)c1 [Example 26, 2-(2-Fluoro-5-methylsulfonylphenyl)-N-[(3S)-9-fluoro-2-oxo-5-phenyl-1,3-dihydro-1,4-benzodiazepin-3-yl]pyrazolo[1,5-a]pyrimidine-3-carboxamide]
- CC50 (Cell cytotoxicity CC50): > 25000 nM
- EC50 (RSV A2; [4]): 61 nM

Compound: NC(=O)c1ccc(-c2nn3cccnc3c2C(=O)N[C@H]2N=C(c3ccccc3)c3cccc(F)c3NC2=O)c(F)c1 [Example 27, 2-(4-Carbamoyl-2-fluorophenyl)-N-[(3S)-9-fluoro-2-oxo-5-phenyl-1,3-dihydro-1,4-benzodiazepin-3-yl]pyrazolo[1,5-a]pyrimidine-3-carboxamide]
- CC50 (Cell cytotoxicity CC50): > 25000 nM
- EC50 (RSV A2; [4]): 49 nM

Compound: NCC(=O)OCc1ccc(-c2nn3cccnc3c2C(=O)N[C@H]2N=C(c3ccccc3)c3ccccc3NC2=O)c(F)c1 [Example 29, 3-Fluoro-4-(3-{[(3S)-2-oxo-5-phenyl-1,3-dihydro-1,4-benzodiazepin-3-yl]carbamoyl}pyrazolo[1,5-a]pyrimidin-2-yl)phenyl]methyl aminoacetate hydrochloride]
- CC50 (Hep-G2 cells): > 25000 nM
- EC50 (RSV A2): 49 nM

Compound: CC(C)[C@H](N)C(=O)OCc1ccc(-c2nn3cccnc3c2C(=O)N[C@H]2N=C(c3ccccc3)c3ccccc3NC2=O)c(F)c1 [Example 30, [3-Fluoro-4-(3-{[(3S)-2-oxo-5-phenyl-1,3-dihydro-1,4-benzodiazepin-3-yl]carbamoyl}pyrazolo[1,5-a]pyrimidin-2-yl)phenyl]methyl (2S)-2-amino-3-methylbutanoate hydrochloride]
- CC50 (Cell cytotoxicity CC50): > 25000 nM
- EC50 (RSV A2; [4]): 44 nM
